≈ marks a conversion by molar mass, not a printed value. Where a SMILES comes first, the peptide text is derived from it. Bridges are numbered along the chain shown (N, C = ends). [ ]: non-standard residue; d: D form. The star is where a group is joined. Octanoyl = CCCCCCCC(=O)*; Dab = NCC[C@H](N)C(=O)O
How the values were obtained:
A. baumannii ATCC 19606 = conditions: ATCC 19606
Experimental: (§1) Polymyxin B sulfate (Sigma-Aldrich, St. Louis, Mo., USA) was used as a control. […] The bacterial test strains originated from ATCC (10 strains), CCUG (11 strains), and NCTC (3 strains). Fourteen (14) strains (the F-strains) were purchased from Mobidiag Ltd., Helsinki, Finland.
(§2) The inocula were prepared by adjusting the bacterial suspensions to a density equivalent to OD546 nm˜0.3 (˜10^8 CFU/ml˜0.5 McFarland) the yeast suspension to a density equivalent to OD546 nm˜0.75 (˜2×10^7 CFU/ml)._The suspensions were diluted to 10^7 CFU/ml. The plates were inoculated by using a Denley Multipoint Inoculator, 1 μl per spot corresponding to approx. 10^4 CFU/spot. Plates were incubated for 16-20 hours at 35° C.

A. baumannii F263 = conditions: F263
Experimental: as §1, §2

C. albicans ATCC 28366 = conditions: ATCC 28366
Experimental: as §1, §2

C. freundii ATCC 8090 = conditions: ATCC 8090
Experimental: as §1, §2

E. cloacae ATCC 23355 = conditions: ATCC 23355
Experimental: as §1, §2

E. cloacae CCUG 52947 = conditions: CCUG 52947
Experimental: as §1, §2

E. cloacae F230 = conditions: F230
Experimental: as §1, §2

E. cloacae F231 = conditions: F231
Experimental: as §1, §2

E. cloacae F232 = conditions: F232
Experimental: as §1, §2

E. coli ATCC 25922 = conditions: ATCC 25922
Experimental: as §1, §2

E. coli CCUG 41424 = conditions: CCUG 41424
Experimental: as §1, §2

E. coli CCUG 41425 = conditions: CCUG 41425
Experimental: as §1, §2

E. coli CCUG 41427 = conditions: CCUG 41427
Experimental: as §1, §2

E. coli CCUG 41429 = conditions: CCUG 41429
Experimental: as §1, §2

E. coli CCUG 41432 = conditions: CCUG 41432
Experimental: as §1, §2

E. coli F10 = conditions: F10
Experimental: as §1, §2

E. coli F19 = conditions: F19
Experimental: as §1, §2

E. coli F8 = conditions: F8
Experimental: as §1, §2

E. coli F9 = conditions: F9
Experimental: as §1, §2

E. coli IH3080 = conditions: IH3080
Experimental: as §1, §2

E. coli NCTC 13352 = conditions: NCTC 13352
Experimental: as §1, §2

E. coli NCTC 13353 = conditions: NCTC 13353
Experimental: as §1, §2

K. oxytoca ATCC 13182 = conditions: ATCC 13182
Experimental: as §1, §2

K. oxytoca CCUG 51683 = conditions: CCUG 51683
Experimental: as §1, §2

K. pneumoniae F136 = conditions: F136
Experimental: as §1, §2

K. pneumoniae F145 = conditions: F145
Experimental: as §1, §2

P. aeruginosa ATCC 27853 = conditions: ATCC 27853
Experimental: as §1, §2

P. aeruginosa CCUG 51971 = system: P. aeruginosa CCUG 51971
Experimental: as §1, §2

P. aeruginosa F58 = conditions: F58
Experimental: as §1, §2

S. aureus ATCC 25923 = conditions: ATCC 25923
Experimental: as §1, §2

[1] = system: S. maltophilia ATCC 17444; conditions: ATCC 17444
Experimental: as §1, §2

S. marcescens ATCC 8100 = conditions: ATCC 8100
Experimental: as §1, §2

Molecule `CCCCCCCC(=O)N[C@H](C(=O)N[C@H](CO)C(=O)N[C@H]1CCNC(=O)[C@H]([C@@H](C)O)NC(=O)[C@H](CCN)NC(=O)[C@H](CCN)NC(=O)[C@H](CC(C)C)NC(=O)[C@@H](Cc2ccccc2)NC(=O)[C@H](CCN)NC1=O)[C@@H](C)O` [NAB 739, OA-Thr-DSer-cy[Dab-Dab-DPhe-Leu-Dab-Dab-Thr-]] (Octanoyl-T[dS][Dab][Dab][dF]L[Dab][Dab]T; lactam 3-C) has an MIC (A. baumannii ATCC 19606) of 8 µg/mL (≈ 7.43 µM), an MIC (A. baumannii F263) of 4 µg/mL (≈ 3.72 µM) and an MIC (C. albicans ATCC 28366) of over 32 µg/mL. It also gave an MIC (C. freundii ATCC 8090) of 2 µg/mL (≈ 1.86 µM), an MIC (E. cloacae ATCC 23355) of 2 µg/mL (≈ 1.86 µM) and an MIC (E. cloacae CCUG 52947) of 2 µg/mL (≈ 1.86 µM). The MIC (E. cloacae F230) was 2 µg/mL (≈ 1.86 µM), the MIC (E. cloacae F231) was 2 µg/mL (≈ 1.86 µM) and the MIC (E. cloacae F232) was 2 µg/mL (≈ 1.86 µM). The MIC (E. coli ATCC 25922) was 1 µg/mL (≈ 0.929 µM), the MIC (E. coli CCUG 41424) was 1 µg/mL (≈ 0.929 µM) and the MIC (E. coli CCUG 41425) was 1 µg/mL (≈ 0.929 µM). The MIC (E. coli CCUG 41427) was 1 µg/mL (≈ 0.929 µM), the MIC (E. coli CCUG 41429) was 1 µg/mL (≈ 0.929 µM) and the MIC (E. coli CCUG 41432) was 1 µg/mL (≈ 0.929 µM). The MIC (E. coli F10) was 1 µg/mL (≈ 0.929 µM), the MIC (E. coli F19) was 0.5 µg/mL (≈ 0.465 µM) and the MIC (E. coli F8) was 1 µg/mL (≈ 0.929 µM). The MIC (E. coli F9) was 1 µg/mL (≈ 0.929 µM), the MIC (E. coli IH3080) was 1 µg/mL (≈ 0.929 µM) and the MIC (E. coli NCTC 13352) was 1 µg/mL (≈ 0.929 µM). It also gave an MIC (E. coli NCTC 13353) of 1 µg/mL (≈ 0.929 µM), an MIC (K. oxytoca ATCC 13182) of 2 µg/mL (≈ 1.86 µM) and an MIC (K. oxytoca CCUG 51683) of 2 µg/mL (≈ 1.86 µM). The MIC (K. pneumoniae F136) was 1 µg/mL (≈ 0.929 µM), the MIC (K. pneumoniae F145) was 2 µg/mL (≈ 1.86 µM) and the MIC (P. aeruginosa ATCC 27853) was 8 µg/mL (≈ 7.43 µM). The MIC (P. aeruginosa CCUG 51971) was 8 µg/mL (≈ 7.43 µM), the MIC (P. aeruginosa F58) was 8 µg/mL (≈ 7.43 µM) and the MIC (S. aureus ATCC 25923) was over 32 µg/mL. It also gave an MIC [1] of 16 µg/mL (≈ 14.9 µM) and an MIC (S. marcescens ATCC 8100) of over 32 µg/mL.
